Test [1] has as its target T1, Human progesterone receptor (HPR) (Homo sapiens, UniProt P06401).
T1 construct: made in house; host or cells: SF9 insect cells (ATCC CRL1711), baculovirus, lysate supernatant
T1 sequence (P06401 1-933): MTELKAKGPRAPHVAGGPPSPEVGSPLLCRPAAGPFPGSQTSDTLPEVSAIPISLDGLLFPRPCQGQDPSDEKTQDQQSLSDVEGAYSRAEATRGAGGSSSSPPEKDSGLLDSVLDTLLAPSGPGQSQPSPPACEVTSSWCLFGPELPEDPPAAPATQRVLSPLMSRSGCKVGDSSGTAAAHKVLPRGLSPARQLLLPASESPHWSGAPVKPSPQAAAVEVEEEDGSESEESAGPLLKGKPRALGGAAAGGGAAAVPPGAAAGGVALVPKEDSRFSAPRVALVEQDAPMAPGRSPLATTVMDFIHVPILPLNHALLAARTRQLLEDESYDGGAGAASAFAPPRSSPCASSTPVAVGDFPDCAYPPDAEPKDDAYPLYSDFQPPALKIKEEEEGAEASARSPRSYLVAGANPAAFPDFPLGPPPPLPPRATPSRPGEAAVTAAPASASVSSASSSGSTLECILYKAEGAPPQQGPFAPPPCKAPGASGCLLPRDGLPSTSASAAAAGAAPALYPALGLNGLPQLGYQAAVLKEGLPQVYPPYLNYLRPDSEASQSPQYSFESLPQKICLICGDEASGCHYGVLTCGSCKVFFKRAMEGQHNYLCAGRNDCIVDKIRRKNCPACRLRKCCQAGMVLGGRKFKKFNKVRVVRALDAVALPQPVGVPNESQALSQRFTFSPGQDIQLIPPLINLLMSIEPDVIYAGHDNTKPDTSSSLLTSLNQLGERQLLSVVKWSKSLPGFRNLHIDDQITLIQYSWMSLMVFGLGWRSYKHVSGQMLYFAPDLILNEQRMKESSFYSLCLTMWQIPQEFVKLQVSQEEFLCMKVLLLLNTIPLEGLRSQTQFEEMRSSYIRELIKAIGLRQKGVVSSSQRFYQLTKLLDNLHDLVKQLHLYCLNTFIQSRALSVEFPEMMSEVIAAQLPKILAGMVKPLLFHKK
The test is described as follows: Relative bond affinity (RBA), recombinant human progestogen receptor, charcoal dextran technique. The class given is binding. The conditions noted are these: 24 h at 0° C., Progesterone = 100. From the text: The human recombinant receptor (HGR, HPR, HAR, HMR, HER) was used.
Human progesterone receptor (HPR):
The recombinant human progestogen receptor was obtained by the superexpression in a cell system of insects--Baculovirus, according to the methodology described by Webb et al (Journal of Methods in Cell and Molecular Biology, (1990) Vol. 2 No. 4, p. 173-188) and the application of which was described for the expression of human hormonal receptors, for example the human glucocorticoid receptor (Srinivasan et al, Molecular Endocrinology, (1990) Vol. 4 No. 2, p. 209-216.
The BaculoGold Transfection Kit (PharMingen, reference 21000K) was used to insert the cDNA fragment described by Kastner et al (The EMBO Journal, (1990), Vol. 9 No. 5, p. 1603-1614), containing the region coding for the human progestogen receptor and to prepare the corresponding recombinant virus. The recombinant virus obtained in this way was used to express the progestogen receptor in SF9 insect cells (ATCC CRL1711), according to the known methodology cited previously.
2×10^7 to 2.5×10^7 SF9 cells were cultured in a 175 ml "Falcon" flask in the TNM-FH medium supplemented with 10% fetal calf serum (FCS) and with 50 micrograms/ml of gentamycin. After infection, then incubation at 27° C. for 40 to 42 hours, the cells were taken up in 1 ml of lysis buffer (1), lysed by 2 cycles of freezing-thawing (-80° C./ 0° C.), then centrifuged at 4° C. for 30 minutes at 20,900 g. The supernatant, containing the recombinant human progestogen receptor, was stored in liquid nitrogen in quantities of 1 ml.
The supernatant was diluted at the time of use with 10 mM Tris buffer, 0.25M saccharose, HCl pH 7.4 containing 0.1% of gelatin and then incubated at 0° C. for 24 hours with a constant concentration (T) of tritiated 17α, 21-dimethyl-19-nor-Δ^4,9 pregnadiene-3,20-dione in the presence of increasing concentrations of either unlabelled progesterone (0-2500×10^-9 M), or the unlabelled product to be tested (1 to 25000×10^-9 M). The concentration of bound tritiated 17,21-dimethyl-19-nor-Δ^4,9 -pregnadiene-3,20-dione (B) was then measured in each incubate using the charcoal dextran adsorption technique.
Calculation of the relative bond affinity (RBA).
The following two curves were drawn: the percentage of bound tritiated hormone B/BO as a function of the logarithm of the concentration of unlabelled reference hormone or as a function of the logarithm of the concentration of unlabelled test product. The straight line of the following equation was determined: […]
The relative bond affinity (RBA) of the test product was determined by the equation: […]

In test [2] the test system is endometrial proliferation (uterine lace). The test is described as follows: Progestomimetic activity: endometrial transformation in the rabbit (Clauberg-McPhail test). In kind it is in vivo. On the set-up: key to Average uterine lace (McPhail Index): McPhail scale 0–4 with 0.5 steps (endometrial proliferation). The conditions noted are these: for Progestomimetic activity: rabbit.

The values below come from patent publication US5834452A, “1- or 6-hydroxylated steroids” (Roussel Uclaf, priority 1996, dated 1998).

SMILES strings stand for the structures.

Consider `C[C@H](O)C(=O)[C@@]1(C)CC[C@H]2[C@@H]3C[C@@H](O)C4=CC(=O)CCC4=C3CC[C@@]21C` [Product B, [6β, 17β-(S)]-6-hydroxy-17-(2-hydroxy-1-oxopropyl)-17-methyl-Δ^4,9-estradiene-3-one], for which the figures for the “RBA, Human progestogen receptor” value in test [1] and in test [1] (listed as product B) were 12 and “moderate RBA”, respectively.
As to `C[C@H](O)C(=O)[C@@]1(C)CC[C@H]2[C@@H]3CCC4=CC(=O)CCC4=C3CC[C@@]21C` [Trimegestone, [17β-(S)]-17-(2-hydroxy-1-oxopropyl)-17-methyl-Δ^4,9-estradiene-3-one, reference compound], the “RBA, Human progestogen receptor” value in test [1] is on record as 588. For the same molecule, the Progestomimetic activity result in test [2] (3 μg/kg percutaneously) was “strong activity”; in test [2] (3 and 10 μg/kg orally), “strong activity”. Besides, in test [2] (rabbit, 0,003 mg/kg, s/c, day 8 to day 11), the “Average uterine lace (McPhail Index)” value is given as 3,8.
